Molecular target: T1, PDK1 (Homo sapiens, UniProt O15530)
T1 construct: purchased Thermo Fisher Scientific (Life Technologies) SelectScreen
Test: SelectScreen Z'LYTE
Format: biochemical
Outline: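 SelectScreen broad panel; activity (Z'LYTE, Adapta) plus binding formats. ATP: Km app for CSF1R Z'LYTE; 10 for CAMK1 Adapta. Readout = % per kinase.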

T1 sequence (O15530 whole entry): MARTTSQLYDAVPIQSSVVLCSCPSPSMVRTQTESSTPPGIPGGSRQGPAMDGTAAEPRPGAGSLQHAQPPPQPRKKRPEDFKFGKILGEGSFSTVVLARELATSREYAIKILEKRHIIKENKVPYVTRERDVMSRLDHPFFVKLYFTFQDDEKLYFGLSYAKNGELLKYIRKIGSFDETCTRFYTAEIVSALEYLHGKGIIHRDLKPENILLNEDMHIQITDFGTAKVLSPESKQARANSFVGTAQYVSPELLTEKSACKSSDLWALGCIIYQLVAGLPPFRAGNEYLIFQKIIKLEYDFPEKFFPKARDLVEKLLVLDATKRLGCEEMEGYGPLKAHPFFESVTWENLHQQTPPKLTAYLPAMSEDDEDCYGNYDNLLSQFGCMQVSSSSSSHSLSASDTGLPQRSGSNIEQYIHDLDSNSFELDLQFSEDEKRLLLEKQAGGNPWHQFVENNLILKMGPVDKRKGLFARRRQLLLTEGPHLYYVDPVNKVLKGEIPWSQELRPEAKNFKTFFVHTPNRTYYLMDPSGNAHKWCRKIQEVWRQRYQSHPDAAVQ

Compound: CN(C(=O)CN1CCOCC1)c1ccc2sc3c(-c4cccc5c(=O)cc(N6CC7CCC(C6)O7)oc45)cccc3c2c1 [NU5455]
- inhibition at 1 µM: -7.3%

From publication PMC6934184, “Selective DNA-PKcs inhibition extends the therapeutic index of localized radiotherapy and chemotherapy” (The Journal of Clinical Investigation, 2019)
